In EP4603105A1, “PHARMACEUTICAL COMPOSITION CONTAINING CYCLIC COMPOUND HAVING SELECTIVE KRAS INHIBITORY EFFECT AGAINST HRAS AND NRAS” (CHUGAI SEIYAKU KABUSHIKI KAISHA, priority 2022, dated 2024):

Legend:
[1] = target: HRAS wild-type protein (Homo sapiens, UniProt P01112); assay: Binding to HRAS by surface plasmon resonance (SPR), KD and KD ratio to KRAS; conditions: ratio of KD for HRAS wild-type protein to KD for KRAS
Outline: (§1)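 Affinity is measured by surface plasmon resonance at 30°C against captured, GDP-loaded RAS carrying a biotinylated Avi tag. Compounds are titrated by single-cycle kinetics, and KD comes from a 1:1 fit.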

[2] = tested on: human lung cancer strain NCI-H441; type: cell-based
Outline: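 Readout: […] after the ATP-based reagent. Compound: serial dilutions in dimethyl sulfoxide.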

[3] = target: GDP-bound NRAS wild-type protein (Homo sapiens, UniProt P01111); assay: Binding to NRAS by surface plasmon resonance (SPR), KD and KD ratio to KRAS; conditions: ratio of KD for GDP-bound NRAS wild-type protein to KD for KRAS
GDP-bound NRAS wild-type protein, sequence (P01111 whole entry): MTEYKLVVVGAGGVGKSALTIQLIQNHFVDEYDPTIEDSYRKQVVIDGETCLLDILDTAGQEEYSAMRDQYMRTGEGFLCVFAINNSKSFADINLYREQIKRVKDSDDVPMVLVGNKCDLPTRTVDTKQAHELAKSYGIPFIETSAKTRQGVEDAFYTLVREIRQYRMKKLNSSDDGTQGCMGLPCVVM
Outline: as §1

HRAS wild-type protein, sequence (P01112 whole entry): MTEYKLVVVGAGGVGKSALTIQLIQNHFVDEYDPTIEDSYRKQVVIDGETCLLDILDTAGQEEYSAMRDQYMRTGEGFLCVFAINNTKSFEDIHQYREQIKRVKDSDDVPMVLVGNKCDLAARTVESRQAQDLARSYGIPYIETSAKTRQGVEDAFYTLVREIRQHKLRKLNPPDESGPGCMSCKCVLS

SMILES	HRAS /KRAS [1]	IC50 [2]	NRAS /KRAS [3]
CCO[C@@H]1C[C@H]2C(=O)NC3(CCC3)C(=O)N(C)[C@@H](C3CCCC3)C(=O)N(C)[C@H](C(=O)N3CCOCC3)CC(=O)N(C)[C@@H](CC(C)C)C(=O)N[C@@H]([C@@H](C)CC)C(=O)N3CC[C@H]3C(=O)N(C)[C@H]3CC(C)=CCN(C3=O)[C@@H](Cc3ccc(C(F)(F)F)cc3)C(=O)N(C)CC(=O)N[C@@H](CCc3cc(F)c(C(F)(F)F)c(F)c3)C(=O)N2C1 [PP1040]	C (A compound having a KD ratio of 0.1 or more and less than 3 is denoted as C)	18.7 nM	C (A compound having a KD ratio of 0.1 or more and less than 3 is denoted as C)
CCO[C@@H]1C[C@H]2C(=O)NC3(CCC3)C(=O)N(C)[C@@H](C3CCCC3)C(=O)N(C)[C@H](C(=O)N3CCOCC3)CC(=O)N(C)[C@@H](CC)C(=O)N[C@@H]([C@@H](C)CC)C(=O)N(C)CC(=O)N(C)[C@H]3CC(C)=CCN(C3=O)[C@@H](Cc3ccc(C(F)(F)F)cc3)C(=O)N(C)CC(=O)N[C@@H](CCc3cc(F)c(C(F)(F)F)c(F)c3)C(=O)N2C1 [PP1041]	C (A compound having a KD ratio of 0.1 or more and less than 3 is denoted as C)	223 nM	C (A compound having a KD ratio of 0.1 or more and less than 3 is denoted as C)
CCO[C@@H]1C[C@H]2C(=O)NC3(CCC3)C(=O)N(C)[C@@H](C3CCCC3)C(=O)N(C)[C@H](C(=O)N3CCOCC3)CC(=O)N(C)[C@@H](CC)C(=O)N[C@@H]([C@@H](C)CC)C(=O)N3CC[C@H]3C(=O)N(C)[C@H]3CC(C)=CCN(C3=O)[C@@H](Cc3ccc(C(F)(F)F)cc3)C(=O)N(C)CC(=O)N[C@@H](CCc3cc(F)c(C(F)(F)F)c(F)c3)C(=O)N2C1 [PP1042]	C (A compound having a KD ratio of 0.1 or more and less than 3 is denoted as C)	349 nM	C (A compound having a KD ratio of 0.1 or more and less than 3 is denoted as C)
CCO[C@@H]1C[C@H]2C(=O)NC3(CCCC3)C(=O)N(C)[C@@H](C3CCCC3)C(=O)N(C)[C@H](C(=O)N3CCOCC3)CC(=O)N(C)[C@@H](CC)C(=O)N[C@@H]([C@@H](C)CC)C(=O)N(C)CC(=O)N(C)[C@H]3CC(C)=CCN(C3=O)[C@@H](Cc3ccc(C(F)(F)F)cc3)C(=O)N(C)CC(=O)N[C@@H](CCc3cc(F)c(C(F)(F)F)c(F)c3)C(=O)N2C1 [PP1043]	C (A compound having a KD ratio of 0.1 or more and less than 3 is denoted as C)	387 nM	C (A compound having a KD ratio of 0.1 or more and less than 3 is denoted as C)
CCO[C@@H]1C[C@H]2C(=O)NC3(CCC3)C(=O)N(C)[C@@H](C3CCCC3)C(=O)N(C)[C@H](C(=O)N3CCOCC3)CC(=O)N(CC)[C@@H](CC(C)C)C(=O)N[C@@H]([C@@H](C)CC)C(=O)N(C)CC(=O)N(C)[C@H]3CC(C)=CCN(C3=O)[C@@H](Cc3ccc(C(F)(F)F)cc3)C(=O)N(C)CC(=O)N[C@@H](CCc3cc(F)c(C(F)(F)F)c(F)c3)C(=O)N2C1 [PP1044]	C (A compound having a KD ratio of 0.1 or more and less than 3 is denoted as C)	44.1 nM	C (A compound having a KD ratio of 0.1 or more and less than 3 is denoted as C)
CCO[C@@H]1C[C@H]2C(=O)NC3(CCCC3)C(=O)N(C)[C@@H](C3CCCC3)C(=O)N(C)[C@H](C(=O)N(C)C)CC(=O)N(C)[C@@H](CC(C)C)C(=O)N[C@@H]([C@@H](C)CC)C(=O)N(C)CC(=O)N(C)[C@H]3CC(C)=C(C)CN(C3=O)[C@@H](Cc3ccc(C(F)(F)F)cc3)C(=O)N(C)CC(=O)N[C@@H](CCc3cc(F)c(C(F)(F)F)c(F)c3)C(=O)N2C1 [PP1045]	C (A compound having a KD ratio of 0.1 or more and less than 3 is denoted as C)	207 nM	C (A compound having a KD ratio of 0.1 or more and less than 3 is denoted as C)
CCO[C@@H]1C[C@H]2C(=O)NC3(CCC3)C(=O)N(C)[C@@H](C3CCCC3)C(=O)N(C)[C@H](C(=O)N(C)C)CC(=O)N(C)[C@@H](CC(C)C)C(=O)N[C@@H]([C@@H](C)CC)C(=O)N3CC[C@H]3C(=O)N(C)[C@H]3CC(C)=C(C)CN(C3=O)[C@@H](Cc3ccc(C(F)(F)F)cc3)C(=O)N(C)CC(=O)N[C@@H](CCc3cc(F)c(C(F)(F)F)c(F)c3)C(=O)N2C1 [PP1047]	C (A compound having a KD ratio of 0.1 or more and less than 3 is denoted as C)	117 nM	C (A compound having a KD ratio of 0.1 or more and less than 3 is denoted as C)
CCO[C@@H]1C[C@H]2C(=O)NC3(CCC3)C(=O)N(C)[C@@H](C3CCCC3)C(=O)N(C)[C@H](C(=O)N(C)C)CC(=O)N(C)[C@@H](CC)C(=O)N[C@@H]([C@@H](C)CC)C(=O)N3CC[C@H]3C(=O)N(C)[C@H]3CC(C)=C(C)CN(C3=O)[C@@H](Cc3ccc(C(F)(F)F)cc3)C(=O)N(C)CC(=O)N[C@@H](CCc3cc(F)c(C(F)(F)F)c(F)c3)C(=O)N2C1 [PP1049]	C (A compound having a KD ratio of 0.1 or more and less than 3 is denoted as C)	359 nM	C (A compound having a KD ratio of 0.1 or more and less than 3 is denoted as C)
CCO[C@@H]1C[C@H]2C(=O)NC3(CCCC3)C(=O)N(C)[C@@H](C3CCCC3)C(=O)N(C)[C@H](C(=O)N(C)C)CC(=O)N(C)[C@@H](CC)C(=O)N[C@@H]([C@@H](C)CC)C(=O)N(C)CC(=O)N(C)[C@H]3CC(C)=C(C)CN(C3=O)[C@@H](Cc3ccc(C(F)(F)F)cc3)C(=O)N(C)CC(=O)N[C@@H](CCc3cc(F)c(C(F)(F)F)c(F)c3)C(=O)N2C1 [PP1050]	C (A compound having a KD ratio of 0.1 or more and less than 3 is denoted as C)	815 nM	C (A compound having a KD ratio of 0.1 or more and less than 3 is denoted as C)
CCO[C@@H]1C[C@H]2C(=O)NC3(CCC3)C(=O)N(C)[C@@H](C3CCCC3)C(=O)N(C)[C@H](C(=O)N(C)C)CC(=O)N(C)[C@@H](CC)C(=O)N[C@@H]([C@@H](C)CC)C(=O)N(CC)CC(=O)N(C)[C@H]3C/C=C\CCN(C3=O)[C@@H](Cc3ccc(C(F)(F)F)cc3)C(=O)N(C)CC(=O)N[C@@H](CCc3cc(F)c(C(F)(F)F)c(F)c3)C(=O)N2C1 [PP1052]	A (a compound having 10 or more and less than 20 is denoted as A)	58.7 nM	A (a compound having 10 or more and less than 20 is denoted as A)
CCCN1CC(=O)N(C)[C@H]2C/C=C\CCN(C2=O)[C@@H](Cc2ccc(C(F)(F)F)cc2)C(=O)N(C)CC(=O)N[C@@H](CCc2cc(F)c(C(F)(F)F)c(F)c2)C(=O)N2C[C@H](OCC)C[C@H]2C(=O)NC2(CCC2)C(=O)N(C)[C@@H](C2CCCC2)C(=O)N(C)[C@H](C(=O)N(C)C)CC(=O)N(C)[C@@H](CC)C(=O)N[C@@H]([C@@H](C)CC)C1=O [PP1053]	A (a compound having 10 or more and less than 20 is denoted as A)	67.8 nM	A (a compound having 10 or more and less than 20 is denoted as A)
